test: in vitro; conditions: human, hela cells, % viability

SMILES	viability at 28.5 h, 10 µM [%]
Cc1ncsc1CCOc1nccnc1N1CCCC1 [CBK115752]	86.5
Oc1cccc(OCCOc2nccnc2N2CCCC2)c1 [CBK115756]	85.5
COCCCOc1cncc(N2CCCC2)n1 [CBK115759]	92.4
c1cncc(COc2nc3ccccc3nc2N2CCCC2)c1 [CBK115762]	93.4
N#CCCOc1nc2ccccc2nc1N1CCCC1 [CBK115763]	96.2
Cc1cc(COc2nc3ccccc3nc2N2CCCC2)no1 [CBK115768]	109
c1ccc2nc(N3CCCC3)c(OC3CCOC3)nc2c1 (centres unmarked) [CBK115769]	99.4
CSCCOc1nc2ccccc2nc1N1CCCC1 [CBK115770]	91.3
COCCCOc1nc2cc(Cl)c(Cl)cc2nc1N1CCCC1 [CBK115773]	95.9
Oc1cccc(OCCOc2nc3cc(Cl)c(Cl)cc3nc2N2CCCC2)c1 [CBK115778]	100
Cc1ncsc1CCOc1ncccc1C(F)(F)F [CBK115781]	92.2
Cc1cc(COc2ncccc2C(F)(F)F)no1 [CBK115783]	101
FC(F)(F)c1ccnc(OCc2cccnc2)c1 [CBK115784]	99.6
Cc1cc(COc2cc(C(F)(F)F)ccn2)no1 [CBK115787]	134
Oc1cccc(OCCOc2cc(C(F)(F)F)ccn2)c1 [CBK115788]	84.8
FC(F)(F)c1ccc(OCCCc2ccncc2)nc1 [CBK115791]	101
Cc1cc(COc2ccc(C(F)(F)F)cn2)no1 [CBK115792]	91.7
Cc1ncsc1CCOc1cccc(C(F)(F)F)n1 [CBK115794]	117
Cc1ncsc1CCOc1nccc(C(F)(F)F)n1 [CBK115798]	80.3
FC(F)(F)c1ccnc(OCCCc2ccncc2)n1 [CBK115799]	97.5
COCCCOc1nc2ccccc2nc1C(F)(F)F [CBK115803]	101

SMILES	viability at 28.5 h, 10 µM [%]
FC(F)(F)c1cccnc1OCCNc1ccccc1 [CBK115822]	98.7
FC(F)(F)c1ccc(OCc2ccc(-c3ccccc3)cc2)nc1 [CBK115830]	94.6
FC(F)(F)c1ccc(OCc2ccc(Cl)c(Cl)c2)nc1 [CBK115831]	90.2
O=C1NC2(CCN(C(=O)Cc3ccc(F)cc3)CC2)Oc2ccc(-c3ccccc3)cc21 [CBK115832]	93.5
FC(F)(F)c1cccc(OCCOc2ccccc2)n1 [CBK115835]	87.7
FC(F)(F)c1ccnc(OCCOc2ccc(Cl)cc2)n1 [CBK115838]	90.8
FC(F)(F)c1ccnc(OCCNc2ccccc2)n1 [CBK115839]	90.8
FC(F)(F)c1nc2ccccc2nc1OCCc1c[nH]c2ccccc12 [CBK115843]	93.2
O=C1NC2(CCN(C(=O)Cc3c(F)ccc(F)c3F)CC2)Oc2ccc(-c3ccoc3)cc21 [CBK115848]	83.2
COc1cccc(NC(=O)N2CCC3(CC2)NC(=O)c2cc(-c4ccoc4)ccc2O3)c1 [CBK115855]	102
COc1ccc2[nH]cc(CCNC(=O)c3ccc(Cl)c(Cl)c3)c2c1 [CBK115870]	107
Cc1cc(NC(=O)C2COc3ccccc3O2)c2ccccc2n1 (centres unmarked) [CBK115871]	91.6
CC(C)Nc1nccnc1OCCOc1cccc(O)c1 [CBK115878]	101
CC(C)Nc1cncc(OCc2cccnc2)n1 [CBK115879]	102
COCCCOc1cncc(NC(C)C)n1 [CBK115880]	89
CC(C)Nc1cncc(OCCCc2ccncc2)n1 [CBK115881]	90.6
CC(C)Nc1cncc(OC2CCOC2)n1 (centres unmarked) [CBK115882]	102
CC(C)Nc1cc(OCCCc2ccncc2)ncn1 [CBK115886]	104
Cc1cc(COc2cc(NC(C)C)ncn2)no1 [CBK115887]	92.7
CSCCOc1cc(NC(C)C)ncn1 [CBK115889]	86.9

— paper PMC12040169 (PLOS Biology, 2025)
